2 compounds from patent US20240059688A1, “CONOLIDINE ANALOGUES AS SELECTIVE ACKR3 MODULATORS FOR THE TREATMENT OF CANCER” (Luxembourg Institute of Health (LIH), priority 2020, published 2024) can be followed below.

Assay type in all cases: cell-based
In one assay the target is T1, human CXCR4 (Homo sapiens, UniProt P61073).
T1 construct: host or cells: C2C12
The assay is described as follows: CXCR4 β-arrestin recruitment assay (PathHunter). The note with it: human CXCR4-C2Cl2 cells, relative to CXCL-12. In outline: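 Agonist mode in PathHunter CHO cells expressing human ACKR3-β-arrestin-2, compounds added in DPBS/1% DMSO for 1.5 hr at 37° C, then detection 1 hr at room temperature, luminescence read. CXCR4 run in C2C12 cells with a 3 hr Cell Plating Reagent 4 preincubation. EC50 and % Emax from three-parameter fits, CXCL-12 as reference agonist; ≥2 independent experiments in duplicate.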
For orientation: Arrestin recruitment assays detect the binding of arrestin to an activated receptor.

Another assay addresses ACKR3 (Homo sapiens, UniProt P25106). The assay is described as follows: GPCR β-arrestin screening (PathHunter gpcrMAX/orphanMAX), ACKR3. The note with it: conolidine 10 μM; over 240 receptors tested. The protocol: (§1) In an effort to identify the target of conolidine among the GPCR family, we undertook a large scale screening program using a β-arrestin recruitment assay based on β-galactosidase complementation (PathHunter, DiscoverX). Over 240 receptors were tested for their ability to be activated or inhibited by conolidine (10 μM) (data not shown). These included 168 GPCRs from the gpcrMAX panel, covering over 60 distinct receptor families such as adrenergic, dopamine, P2Y or serotonin and 74 GPCRs from the orphanMAX panel.

Another assay has as its target T2, ADRA2B (Homo sapiens, UniProt P18089).
T2 sequence (P18089 1-450): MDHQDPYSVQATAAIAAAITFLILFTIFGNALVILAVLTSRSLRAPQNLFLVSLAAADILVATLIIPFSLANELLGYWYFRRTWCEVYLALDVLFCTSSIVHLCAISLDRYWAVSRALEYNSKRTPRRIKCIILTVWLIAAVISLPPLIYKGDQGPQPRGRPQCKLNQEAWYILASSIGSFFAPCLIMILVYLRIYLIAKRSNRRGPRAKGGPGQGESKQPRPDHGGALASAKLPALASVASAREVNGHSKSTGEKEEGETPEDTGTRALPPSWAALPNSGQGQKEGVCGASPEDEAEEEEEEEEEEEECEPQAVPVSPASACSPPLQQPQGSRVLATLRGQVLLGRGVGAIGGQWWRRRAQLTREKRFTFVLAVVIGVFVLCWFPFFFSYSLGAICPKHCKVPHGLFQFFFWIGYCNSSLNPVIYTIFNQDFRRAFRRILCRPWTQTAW
Put plainly: GPCR β-arrestin screening (PathHunter gpcrMAX/orphanMAX), ADRA2B. Conditions: conolidine 10 μM. The protocol: as §1

The next assay addresses T3, CX3CR1 (Homo sapiens, UniProt P49238).
T3 construct: expressed in transfected cells; host or cells: U87
T3 sequence (P49238 1-355): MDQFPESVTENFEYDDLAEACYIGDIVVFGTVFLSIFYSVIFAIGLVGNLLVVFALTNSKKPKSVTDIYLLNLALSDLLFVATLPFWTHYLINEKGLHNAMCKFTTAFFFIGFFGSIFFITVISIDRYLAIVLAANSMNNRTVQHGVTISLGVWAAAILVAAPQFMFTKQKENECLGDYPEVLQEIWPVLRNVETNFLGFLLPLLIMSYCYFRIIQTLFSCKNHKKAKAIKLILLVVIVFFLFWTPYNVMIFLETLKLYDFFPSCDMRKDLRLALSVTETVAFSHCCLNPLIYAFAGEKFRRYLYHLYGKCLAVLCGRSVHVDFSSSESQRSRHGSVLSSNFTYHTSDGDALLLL
Put plainly: NanoBiT β-arrestin-1 recruitment, receptor selectivity panel, CX3CR1. The note with it: higher concentrations (3 μM, 10 μM); FIG. 3 sections B and C. As to the method: To further assess the selectivity profile of the compounds of the invention towards ACKR3, the ability to activate the 21 classical and 4 atypical chemokines receptors and related receptors was tested using the NanoBiT assay based β-arrestin-1 recruitment described previously. The 4 classical opioid receptors described above were also included in the experimental setup. The compounds WW-1 (conolidine) and WW-12 were tested at three different concentrations, 1 μM, 3 μM and 10 μM.
This possible off-target effect was further characterized by comparing the ability of the two molecules to activate receptors ACKR4, CX3CR1 and CCR3 with reference ligands for the receptors, namely CCL19, CX3CL1 and CCL13.
Ligand-induced β-arrestin recruitment to chemokine and opioid receptors was monitored by NanoLuc complementation assay (NanoBiT, Promega). […] Ligand-induced, β-arrestin to GPCRs was evaluated with a Mithras LB940 luminometer (Berthold Technologies, running on MicroWin 2010 5.19 software (Mikrotek Laborsysteme)) for 20 minutes.
For single dose screening experiments on all chemokine receptors(FIG. 3), the results are represented as percentage of signal monitored with 100 nM of one known agonist chemokine listed in the IUPHAR repository of chemokine receptor ligands which was added as positive control.

The next assay deals with T4, ADRA2BC (Homo sapiens, UniProt P18825).
T4 sequence (P18825 1-462): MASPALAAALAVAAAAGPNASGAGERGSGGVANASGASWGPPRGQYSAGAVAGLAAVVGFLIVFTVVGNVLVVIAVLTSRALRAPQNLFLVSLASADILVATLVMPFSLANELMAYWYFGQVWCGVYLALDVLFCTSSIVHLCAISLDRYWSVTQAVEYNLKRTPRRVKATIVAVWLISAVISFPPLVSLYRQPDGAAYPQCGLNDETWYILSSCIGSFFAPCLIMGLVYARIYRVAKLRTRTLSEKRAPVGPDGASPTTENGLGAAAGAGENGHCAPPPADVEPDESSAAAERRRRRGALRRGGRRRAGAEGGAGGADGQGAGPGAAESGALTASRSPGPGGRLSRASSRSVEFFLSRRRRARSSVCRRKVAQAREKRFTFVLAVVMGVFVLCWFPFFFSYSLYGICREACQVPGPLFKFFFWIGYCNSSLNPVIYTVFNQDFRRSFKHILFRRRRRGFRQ
Put plainly: GPCR β-arrestin screening (PathHunter gpcrMAX/orphanMAX), ADRA2BC. Conditions: conolidine 10 μM. As to the method: as §1

T1 sequence (P61073 whole entry): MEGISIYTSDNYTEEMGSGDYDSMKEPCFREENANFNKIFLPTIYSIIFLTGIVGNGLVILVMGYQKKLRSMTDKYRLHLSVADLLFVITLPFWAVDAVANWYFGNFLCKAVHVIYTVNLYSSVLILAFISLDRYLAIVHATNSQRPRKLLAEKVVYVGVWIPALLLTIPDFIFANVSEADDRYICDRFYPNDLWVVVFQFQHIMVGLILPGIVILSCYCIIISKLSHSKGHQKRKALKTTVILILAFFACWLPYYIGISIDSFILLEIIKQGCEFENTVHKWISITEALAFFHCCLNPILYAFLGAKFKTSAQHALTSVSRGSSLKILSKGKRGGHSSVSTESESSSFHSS
ACKR3, sequence (P25106 whole entry): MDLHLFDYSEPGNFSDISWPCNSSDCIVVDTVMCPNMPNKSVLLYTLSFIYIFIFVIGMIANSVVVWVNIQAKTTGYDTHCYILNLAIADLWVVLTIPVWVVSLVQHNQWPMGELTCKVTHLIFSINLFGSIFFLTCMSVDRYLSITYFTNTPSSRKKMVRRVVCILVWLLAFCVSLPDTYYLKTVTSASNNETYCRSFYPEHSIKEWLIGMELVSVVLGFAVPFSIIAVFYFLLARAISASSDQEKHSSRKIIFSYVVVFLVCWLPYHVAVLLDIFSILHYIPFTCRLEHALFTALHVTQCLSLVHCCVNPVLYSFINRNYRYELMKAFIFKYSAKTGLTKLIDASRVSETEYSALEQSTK

Turning to `C/C=C1/CN2CC[C@H]1C(=O)c1[nH]c3ccccc3c1C2` [WW-1, (4E,5R)-4-ethylidene-1,4,5,7-tetrahydro-2,5-ethanoazocino[4,3-b]indol-6(3H)-one], the “CXCR4 β-arrestin % CXCL-12Emax (n = 2)” value on human CXCR4 was 3%. The “response of ACKR3 in GPCR screening” value on ACKR3 was “most responsive receptor”. In addition, the “activity towards ADRA2B in GPCR screening” value on ADRA2B is “No activity was detected”. At CX3CR1, the “activation of CX3CR1 (β-arrestin-1 recruitment) in receptor panel” value is on record as “weak activation”. Also, on ADRA2BC, the “activity towards ADRA2BC in GPCR screening” value was “No activity was detected”.
As for `C/C=C1/CN(CCCCC)CC[C@H]1C(=O)c1cc2ccccc2[nH]1` [WW-12, [(3E,4R)-3-ethylidene-1-pentylpiperidin-4-yl](1H-indol-2-yl)methanone], the “CXCR4 β-arrestin % CXCL-12Emax (n = 2)” value on human CXCR4 came to 4%. Also, at CX3CR1, the “activation of CX3CR1 (β-arrestin-1 recruitment) in receptor panel” value was “weak activation”.
